According to the NIST ThermoML archive (doi:10.1016/j.fluid.2014.09.031):

Assay: xn = mol fraction of the nth substance listed
Settings: 298.15 K, 101 kPa, Liquid, Vibrating tube method

CN1CCCC1=O [N-methylpyrrolidone] + CCCC[NH3+].O=[N+]([O-])[O-]
Settings	mass density [kg/m3]
x2 = 0	1028.25

CN1CCCC1=O [N-methylpyrrolidone] + CC[NH3+].O=[N+]([O-])[O-]
Settings	mass density [kg/m3]
x2 = 0	1028.25

CCCC[NH3+].O=[N+]([O-])[O-] [n-butylammonium nitrate] + CN1CCCC1=O
Settings	mass density [kg/m3]
x1 = 0.048	1036.44
x1 = 0.108	1044.94
x1 = 0.163	1051.72
x1 = 0.267	1062.31
x1 = 0.365	1069.91
x1 = 0.439	1074.93
x1 = 0.538	1080.43
x1 = 0.67	1088.06
x1 = 0.843	1097.2
x1 = 1	1105.49

CN1CCCC1=O [N-methylpyrrolidone] + CCC[NH3+].O=[N+]([O-])[O-]
Settings	mass density [kg/m3]
x2 = 0	1028.25

CCC[NH3+].O=[N+]([O-])[O-] [propylammonium nitrate] + CN1CCCC1=O
Settings	mass density [kg/m3]
x1 = 0.046	1038.38
x1 = 0.167	1059.42
x1 = 0.202	1064.53
x1 = 0.263	1073.3
x1 = 0.329	1081.53
x1 = 0.406	1090.6
x1 = 0.461	1096.52
x1 = 0.551	1105.72
x1 = 0.582	1108.68
x1 = 0.628	1113.18
x1 = 0.661	1116.42
x1 = 0.721	1122.67
x1 = 0.781	1128.74
x1 = 0.808	1130.96
x1 = 0.862	1136.73

CC[NH3+].O=[N+]([O-])[O-] [ethylammonium nitrate] + CN1CCCC1=O
Settings	mass density [kg/m3]
x1 = 0.049	1040.83
x1 = 0.138	1059.94
x1 = 0.166	1065.8
x1 = 0.223	1076.59
x1 = 0.242	1080.27
x1 = 0.292	1089.23
x1 = 0.347	1098.75
x1 = 0.413	1109.61
x1 = 0.457	1116.43
x1 = 0.48	1119.62
x1 = 0.54	1129.36
x1 = 0.592	1137.95
x1 = 0.63	1143.72
x1 = 0.684	1153.22
x1 = 0.763	1167.68
x1 = 0.83	1179.62
x1 = 0.915	1195.54
x1 = 0.981	1207.67
x1 = 1	1210.76
